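In this assay, cells in 96-well plates receive the compound at five concentrations for 48 hours. Endpoints are linearly interpolated between the surrounding concentrations. Here, GI50 denotes the concentration required for 50% inhibition of growth. TGI denotes the concentration required for complete inhibition of growth.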
Experiments:
Assay in all cases: inhibition of tumour cell growth, NCI panel, 48 h
[1] = system: NCI-H460 lung
[2] = system: ACHN renal
[3] = system: OVCAR-5 ovarian
[4] = system: PC-3 prostate
[5] = system: SK-MEL-5 melanoma
[6] = system: OVCAR-4 ovarian
[7] = system: SW-620 colon
[8] = system: A549 NSCLC
[9] = system: SK-OV-3 ovarian
[10] = system: K-562 leukemia
[11] = system: HOP-92 NSCLC
[12] = system: SF-295 CNS
[13] = system: SR leukemia
[14] = system: HCT-15 colon
[15] = system: SF-268 CNS
[16] = system: MOLT-4 leukemia
[17] = system: U251 CNS
[18] = system: LOX IMVI melanoma
[19] = system: CAKI-1 renal
[20] = system: HL-60(TB) leukemia
[21] = system: SF-539 CNS
[22] = system: OVCAR-8 ovarian
[23] = system: SN12C renal
[24] = system: UACC-62 melanoma
[25] = system: EKVX NSCLC
[26] = system: NCI-H23 lung
[27] = system: OVCAR-3 ovarian
[28] = system: DU-145 prostate

CCc1cccc2c3c(sc12)C(c1ccc(F)cc1)C(C#N)=C(/N=C/c1ccc(Cl)cc1)O3 (stereo unspecified)
GI50 [1]: 427 nM | TGI [1]: > 100000 nM | GI50 [2]: 824 nM | TGI [2]: > 100000 nM | GI50 [3]: 421 nM | TGI [3]: > 100000 nM | GI50 [4]: 501 nM | TGI [4]: > 100000 nM | GI50 [5]: 319 nM | TGI [5]: 18000 nM | GI50 [6]: 97600 nM | TGI [6]: > 100000 nM | GI50 [7]: 471 nM | TGI [7]: > 100000 nM | GI50 [8]: 506 nM | TGI [8]: > 100000 nM | GI50 [9]: 412 nM | TGI [9]: > 100000 nM | GI50 [10]: 128 nM | TGI [10]: > 100000 nM | GI50 [11]: 22400 nM | TGI [11]: > 100000 nM | GI50 [12]: 278 nM | TGI [12]: > 100000 nM | GI50 [13]: 402 nM | TGI [13]: 19800 nM | GI50 [14]: 355 nM | TGI [14]: > 100000 nM | GI50 [15]: 6260 nM | TGI [15]: > 100000 nM | GI50 [16]: 519 nM | TGI [16]: > 100000 nM | GI50 [17]: 369 nM | TGI [17]: 34200 nM | GI50 [18]: 576 nM | TGI [18]: > 100000 nM | GI50 [19]: 149 nM | TGI [19]: > 100000 nM | GI50 [20]: 222 nM | TGI [20]: 649 nM | GI50 [21]: 208 nM | TGI [21]: 648 nM | GI50 [22]: 500 nM | TGI [22]: > 100000 nM | GI50 [23]: 430 nM | TGI [23]: > 100000 nM | GI50 [24]: 352 nM | TGI [24]: > 100000 nM | GI50 [25]: 488 nM | TGI [25]: > 100000 nM | GI50 [26]: 578 nM | TGI [26]: > 100000 nM | GI50 [27]: 709 nM | TGI [27]: > 100000 nM | GI50 [28]: 579 nM | TGI [28]: > 100000 nM

From PubChem BioAssay (NCI)
